For assay [1] the following is noted: mechanistic studies; cited from earlier work.
The next assay concerns collagenase. The following applies: literature / U.S. Pat. No. 4,297,372; cited from earlier work.
Assay [2] concerns corneal ulceration. The following applies: human; cited from earlier work.
Assay [3] concerns the target T1, human skin fibroblast collagenase (Homo sapiens, UniProt P03956).
T1 construct: endogenous in cells; host or cells: human skin fibroblasts
T1 sequence (P03956 100-469): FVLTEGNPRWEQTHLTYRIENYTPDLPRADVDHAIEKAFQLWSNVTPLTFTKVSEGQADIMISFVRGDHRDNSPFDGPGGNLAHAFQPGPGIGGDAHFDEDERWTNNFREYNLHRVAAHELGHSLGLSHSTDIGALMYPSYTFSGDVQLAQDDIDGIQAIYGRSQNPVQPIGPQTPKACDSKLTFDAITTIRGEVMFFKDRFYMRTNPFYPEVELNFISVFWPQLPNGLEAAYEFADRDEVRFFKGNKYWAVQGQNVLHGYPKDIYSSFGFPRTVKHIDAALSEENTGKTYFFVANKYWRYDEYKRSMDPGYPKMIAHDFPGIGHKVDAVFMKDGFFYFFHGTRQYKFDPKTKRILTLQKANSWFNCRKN
Description: Collagenase Assay, Test Code 006: degradation of 14C-labeled native collagen fibrils by collagenase. Format: biochemical. The following applies: ratio of weight (μg) for 50% inhibition over that of 6,6'-[ureylenebis(m-phenylenecarbonylimino)]bis[4-hydroxy-2-naphthalenesulfonic acid]disodium salt; test conc.: 30 μg/ml; 37° C., 16 hours; >1 = less active. Here is the method:
(i) Collagenase Assay--Test Code 006
A collagenase assay was performed by a modification of the method of Harper, et al., Biochem., 10, 3035 (1971). In a typical assay (total volume of 0.45 ml), 100 μl of the activated enzyme was added to the ^14 C-labeled collagen fibrils (250 μl) followed by 100 μl of 50 mM cacodylate, pH 7.4, containing 5 mM calcium chloride. After incubation at 37° C. for 16 hours, the tubes were centrifuged in a Beckman microfuge for five minutes at full speed. An aliquot (200 μl) of the supernatant, representing collagenase digestion products of the fibril, was assayed for radioactivity. The effect of the test compound on collagen degradation by collagenase was examined as follows:
Varying concentrations of the test compound (in distilled water) were added to the assay tubes containing active collagenase (total volume 450 μl) and after 16 hours the amount of radioactivity in the supernatant was determined. Appropriate blanks and trypsin controls were run in parallel.
The result is expressed as an ID50 collagenase value which represents a ratio of the weight (μg) of the representative compound required for 50% inhibition of collagenase over the weight (μg) of 6,6,-[ureylenebis(m-phenylenecarbonylimino)]bis[4-hydroxy-2-naphthalenesulfonic acid]disodium salt required for 50% inhibition of collagenase.

Assay [4] in a line: Binding (competition) assay with 14C-6,6'-[ureylenebis(m-phenylenecarbonylimino)]bis[4-hydroxy-2-naphthalenesulfonic acid]disodium salt on tooth powder. The following applies: relative to 6,6'-[ureylenebis(m-phenylenecarbonylimino)]bis[4-hydroxy-2-naphthalenesulfonic acid]disodium salt; 1 mg tooth powder, PBS, 37° C., 60 minutes; >1 = less efficient. The text has this:
Using (radioactive) ^14 C-6,6'-[ureylenebis(m-phenylenecarbonylimino)]bis[4-hydroxy-2-naphthalenesulfonic acid]disodium salt a binding (competition) assay procedure is established which involves an insoluble substrate such as tooth powder which will bind the ^14 C-6,6'-[ureylenebis(m-phenylenecarbonylimino)]bis[4-hydroxy-2-naphthalenesulfonic acid]disodium salt. The amount of ^14 C-6,6'-[ureylenebis(m-phenylenecarbonylimino)]bis[4-hydroxy-2-naphthalenesulfonic acid]disodium salt bound is determined by washing away the unbound radioactive compound and counting CPM (counts per minute) of the insoluble tooth powder/^14 C-6,6'-[ureylenebis(m-phenylenecarbonylimino)]bis[4-hydroxy-2-naphthalenesulfonic acid]disodium salt complex. […] The inhibiting effect of the test compound on binding compared to non-radioactive 6,6'-[ureylenebis(m-phenylenecarbonylimino)]bis[4-hydroxy-2-naphthalenesulfonic acid]disodium salt was determined as follows: A one mg amount of tooth powder was incubated in one ml of phosphate buffered saline (PBS) with 10 μg of ^14 C-6,6'-[ureylenebis(m-phenylenecarbonylimino)]bis[4-hydroxy-2-naphthalenesulfonic acid]disodium salt and varying dose amounts (ranging from 0 to 2 mg) of the same cold (non-radioactive) compound. […]

The subject of assay [5] is corneal ulceration. The following applies: alkali burned rabbit, applied to the eye; cited from earlier work.
Assay [6] can be described thus: Binding to insoluble collagenous structures.

Where a name gives a salt, the structure may show the parent alone.

As to `F` [Fluoride], the binding to enamel entry in assay [1] is on record as “binds to enamel”.

Regarding `Cc1cc(-c2ccc(/N=N/c3c(S(=O)(=O)O)cc4cc(S(=O)(=O)O)cc(N)c4c3O)c(C)c2)ccc1/N=N/c1c(S(=O)(=O)O)cc2cc(S(=O)(=O)O)cc(N)c2c1O` [trypan blue], the “collagenase inhibition (in words)” value in the assay on collagenase was “inhibiting the activity of collagenase, or a proteinase contaminant in the collagenase preparation”. With `N[C@@H](CS)C(=O)O` [cysteine], the “effectiveness in treatment of acute and chronic corneal ulceration” value with corneal ulceration [2] is “effective in the treatment of acute and chronic corneal ulceration”. Moreover, the “collagenase inhibition (in words)” value in the assay with collagenase is listed as “collagenase inhibitors”. As for `c1cnc2c(c1)ccc1cccnc12` [1,10-phenanthroline], the “collagenase inhibition (in words)” value in the assay with collagenase is listed as “collagenase inhibitors”. For the compound `O[C@H](CS)[C@H](O)CS` (racemic) [dithiothreitol], the “collagenase inhibition (in words)” value with collagenase was “collagenase inhibitors”. As to `Cc1ccc(C(=O)Nc2ccc(S(=O)(=O)O)c3cc(S(=O)(=O)O)cc(S(=O)(=O)O)c23)cc1NC(=O)c1cccc(NC(=O)Nc2cccc(C(=O)Nc3cc(C(=O)Nc4ccc(S(=O)(=O)O)c5cc(S(=O)(=O)O)cc(S(=O)(=O)O)c45)ccc3C)c2)c1` [Suramin], the “collagenase inhibition (in words)” value in the assay with collagenase was “not inhibiting the action of collagenase”. Turning to `O=C(Nc1cccc(C(=O)Nc2ccc3cc(S(=O)(=O)O)cc(O)c3c2)c1)C(=O)Nc1cccc(C(=O)Nc2ccc3cc(S(=O)(=O)O)cc(O)c3c2)c1` [6,6'-[Oxalylbis(imino-m-phenylenecarbonylimino)]bis-[4-hydroxy-2-naphthalenesulfonic acid]disodium salt], in assay [3], the “ID50 Collagenase Ratio” value is 1.10. In assay [4], the “ID50 Binding Ratio” value was found to be 1.00.

As for “α2 -macroglobulin: Naturally occurring collagenase inhibitors include the serum components α2 -macroglobulin”, the “collagenase inhibition (in words)” value with collagenase is on record as “collagenase inhibitors”. Consider `CC(=O)N[C@@H](CS)C(=O)O` [acetylcysteine], for which, in the assay with corneal ulceration [2], the “effectiveness in treatment of acute and chronic corneal ulceration” value is “effective in the treatment of acute and chronic corneal ulceration”. Moreover, the “reduction of frequency of ulceration” value with corneal ulceration [5] is reported as “reduce the frequency of ulceration”.

On to `O=C([O-])CN(CCN(CC(=O)[O-])CC(=O)[O-])CC(=O)[O-].[Ca+2].[Ca+2]` [Calcium ethylenediaminetetraacetate], for which, in the assay on corneal ulceration [5], the “reduction of frequency of ulceration” value is listed as “reduce the frequency of ulceration”. `O=C(Nc1cccc(C(=O)Nc2ccc3cc(S(=O)(=O)O)cc(O)c3c2)c1)Nc1cccc(C(=O)Nc2ccc3cc(S(=O)(=O)O)cc(O)c3c2)c1` [6,6'-[ureylenebis(m-phenylenecarbonylimino)]bis[4-hydroxy-2-naphthalenesulfonic acid]disodium salt]: the “collagenase inhibition (in words)” value with collagenase was “established as an inhibitor of the degradation of collagen”. For the same compound, in assay [6], the “binding to insoluble collagenous structures” value is “will bind to insoluble collagenous structures such as teeth, dentin, gingiva and the like”; the “character of binding (saturability, reversibility)” value is “saturable and reversible”. Consider sodium auriothiomalate, for which the “collagenase inhibition (in words)” value with collagenase is “collagenase inhibitors”.

The values are drawn from US4599204A, “Oxalylamides useful as dental antiplaque agents and inhibitors of connective tissue destruction” (American Cyanamid Company, priority 1985, dated 1986).
